ChEMBL document CHEMBL1146608, “Design and synthesis of pseudo-symmetric HIV protease inhibitors containing a novel hydroxymethylcarbonyl (HMC)-hydrazide isostere” (Bioorg Med Chem Lett, 2003)
pEC50, pKi: −log10 of the molar value.

Molecular target: Human immunodeficiency virus type 1 protease (Human immunodeficiency virus 1, UniProt Q72874)
Experiment: Inhibitory activity against HIV-1 protease
Details: not given

Row | Structure (SMILES) | pKi
1 | Cc1c(O)cccc1C(=O)N[C@@H](Cc1ccccc1)[C@H](O)C(=O)N(Cc1ccccc1)NC(=O)c1cccc(O)c1C | 7.82
2 | Cc1cc(N)cc(C)c1OCC(=O)N[C@@H](Cc1ccccc1)[C@H](O)C(=O)N(Cc1ccccc1)NC(=O)c1cccc(O)c1C | 8.30
3 | CSC[C@H](NC(=O)OCc1cccc2cnccc12)C(=O)N[C@@H](Cc1ccccc1)[C@H](O)C(=O)N(Cc1ccccc1)NC(=O)COc1c(C)cccc1C | 9.60
4 | CSC[C@H](NC(=O)OCc1cccc2cnccc12)C(=O)N[C@@H](Cc1ccccc1)[C@H](O)C(=O)N(Cc1ccccc1)NC(=O)c1cccc(O)c1C | 9.33
5 | Cc1cccc(C)c1OCC(=O)NN(Cc1ccccc1)C(=O)[C@@H](O)[C@H](Cc1ccccc1)NC(=O)c1cccc(O)c1C | 8.24
6 | Cc1cccc(C)c1OCC(=O)N[C@@H](Cc1ccccc1)[C@H](O)C(=O)N(Cc1ccccc1)NC(=O)c1cccc(O)c1C | 8.52
7 | Cc1c(O)cccc1C(=O)N[C@@H](Cc1ccccc1)[C@@H](O)C(=O)N(Cc1ccccc1)NC(=O)c1cccc(O)c1C | 9.80

System: MT4
Experiment: Cytotoxic effect against HIV-IIIB strain in MT-4 cells
Format: functional
Details: Homo sapiens, read-out: TD50 (the source's name)

Row | Structure (SMILES) | CC50 [nM]
8 | Cc1c(O)cccc1C(=O)N[C@@H](Cc1ccccc1)[C@H](O)C(=O)N(Cc1ccccc1)NC(=O)c1cccc(O)c1C | 73
9 | Cc1cc(N)cc(C)c1OCC(=O)N[C@@H](Cc1ccccc1)[C@H](O)C(=O)N(Cc1ccccc1)NC(=O)c1cccc(O)c1C | 35
10 | CSC[C@H](NC(=O)OCc1cccc2cnccc12)C(=O)N[C@@H](Cc1ccccc1)[C@H](O)C(=O)N(Cc1ccccc1)NC(=O)COc1c(C)cccc1C | > 100
11 | CSC[C@H](NC(=O)OCc1cccc2cnccc12)C(=O)N[C@@H](Cc1ccccc1)[C@H](O)C(=O)N(Cc1ccccc1)NC(=O)c1cccc(O)c1C | 23
12 | Cc1cccc(C)c1OCC(=O)NN(Cc1ccccc1)C(=O)[C@@H](O)[C@H](Cc1ccccc1)NC(=O)c1cccc(O)c1C | 12
13 | Cc1cccc(C)c1OCC(=O)N[C@@H](Cc1ccccc1)[C@H](O)C(=O)N(Cc1ccccc1)NC(=O)c1cccc(O)c1C | 12
14 | Cc1c(O)cccc1C(=O)N[C@@H](Cc1ccccc1)[C@@H](O)C(=O)N(Cc1ccccc1)NC(=O)c1cccc(O)c1C | 91

System: MT4
Experiment: Inhibitory concentration against HIV-IIIB strain in MT-4 cells
Format: functional, cell-based
Details: Homo sapiens

Row | Structure (SMILES) | pEC50
15 | Cc1c(O)cccc1C(=O)N[C@@H](Cc1ccccc1)[C@H](O)C(=O)N(Cc1ccccc1)NC(=O)c1cccc(O)c1C | 8.96
16 | Cc1cc(N)cc(C)c1OCC(=O)N[C@@H](Cc1ccccc1)[C@H](O)C(=O)N(Cc1ccccc1)NC(=O)c1cccc(O)c1C | 9.32
17 | CSC[C@H](NC(=O)OCc1cccc2cnccc12)C(=O)N[C@@H](Cc1ccccc1)[C@H](O)C(=O)N(Cc1ccccc1)NC(=O)COc1c(C)cccc1C | 8.72
18 | CSC[C@H](NC(=O)OCc1cccc2cnccc12)C(=O)N[C@@H](Cc1ccccc1)[C@H](O)C(=O)N(Cc1ccccc1)NC(=O)c1cccc(O)c1C | 9.40
19 | Cc1cccc(C)c1OCC(=O)NN(Cc1ccccc1)C(=O)[C@@H](O)[C@H](Cc1ccccc1)NC(=O)c1cccc(O)c1C | 8.74
20 | Cc1cccc(C)c1OCC(=O)N[C@@H](Cc1ccccc1)[C@H](O)C(=O)N(Cc1ccccc1)NC(=O)c1cccc(O)c1C | 8.96
21 | Cc1c(O)cccc1C(=O)N[C@@H](Cc1ccccc1)[C@@H](O)C(=O)N(Cc1ccccc1)NC(=O)c1cccc(O)c1C | 8.80

System: not listed separately
Experiment: Selectivity index expressed as ratio of TD50 to EC50
Format: functional
Details: not given

Row | Structure (SMILES) | Therapeutic index
22 | Cc1c(O)cccc1C(=O)N[C@@H](Cc1ccccc1)[C@H](O)C(=O)N(Cc1ccccc1)NC(=O)c1cccc(O)c1C | 66
23 | Cc1cc(N)cc(C)c1OCC(=O)N[C@@H](Cc1ccccc1)[C@H](O)C(=O)N(Cc1ccccc1)NC(=O)c1cccc(O)c1C | 73
24 | CSC[C@H](NC(=O)OCc1cccc2cnccc12)C(=O)N[C@@H](Cc1ccccc1)[C@H](O)C(=O)N(Cc1ccccc1)NC(=O)COc1c(C)cccc1C | > 53
25 | CSC[C@H](NC(=O)OCc1cccc2cnccc12)C(=O)N[C@@H](Cc1ccccc1)[C@H](O)C(=O)N(Cc1ccccc1)NC(=O)c1cccc(O)c1C | 58
26 | Cc1cccc(C)c1OCC(=O)NN(Cc1ccccc1)C(=O)[C@@H](O)[C@H](Cc1ccccc1)NC(=O)c1cccc(O)c1C | 6.7
27 | Cc1cccc(C)c1OCC(=O)N[C@@H](Cc1ccccc1)[C@H](O)C(=O)N(Cc1ccccc1)NC(=O)c1cccc(O)c1C | 11
28 | Cc1c(O)cccc1C(=O)N[C@@H](Cc1ccccc1)[C@@H](O)C(=O)N(Cc1ccccc1)NC(=O)c1cccc(O)c1C | 57
